SMILES strings stand for the structures.

In one assay the target is T1, Erk1 (Homo sapiens, UniProt P27361).
T1 construct: purchased Millipore 14-439
The assay is described as follows: Protein Mass Modification Assay (intact protein MALDI, 60 min, 10-fold excess of compound). The assay is classed as binding. How it is done: Protein Mass Modification Assay
Intact protein: Erk1 from Millipore (Cat. No. 14-439) was incubated for 60 min. at room temperature with a 10-fold excess of test compound to protein. 4 μL aliquots of the resulting mixture were diluted with 15 μL of 0.2% TFA prior to micro C4 ZipTipping directly onto the MALDI target using sinapinic acid as the desorption matrix (10 mg/ml in 0.1% TFA:Acetonitrile 50:50, v/v). The centroid mass of the target protein in the control sample was compared with the centroid mass of the target protein incubated with compound. A shift in the centroid mass of the treated protein compared to the untreated protein was divided by the molecular weight of the compound. This number corresponds to the percentage of modified protein after one hour incubation. Results from this assay are reported in Table A under the column “ERK1 Mass Mod (%).”

The test system of assay [1] is ERK1/2 phosphorylation of p90RSK in A375 cells. Briefly: Detection of total and phosphor-RSK by MSD ELISA (A375). The assay is classed as cell-based. The following applies: Homo sapiens, A-375, read-out: ERK1/ERK2 PRSK A375 EC50. How it is done: Detection of Total and Phosphor-RSK by MSD ELISA (A375)
(§1) The protocol below describes an assay to measure the kinase activity of ERK1/2 to phosphorylate a substrate, p90RSK, in the presence or absence of a test compound.
A375 cells were grown in DMEM/10% FBS. Twenty four hours prior to the assay, 50,000 cells per well were plated in a 96 well flat bottom plate. Once cells attached to the plate, the medium was replaced with 100 ul of DMEM/0.1% FBS. Cells were cultured overnight in an incubator at 37° C.
Compound stock solutions of 10 mM in DMSO were prepared. 1000× dilutions were then prepared in DMSO. 1 uL of DMSO solution was then transferred to 1 ml DMEM/0.1% FBS in a deep well plate. Cell plate media was discarded, followed by addition of 100 uL of the compound-containing media. The preparation was incubated at 37° C. for 2 hrs.
Cell lysates were prepared as described below.
pRSK or Total RSK MSD Assay
MSD plates: Blank MSD plates were coated with 30 uL capture antibody (BD 610226) at a final concentration of 1 ug/mL in PBS. Both pRSK and total RSK MSD assays used the same capture antibody at the same concentration. Antibody stock concentration was 250 ug/mL. Once antibody solution was added to the MSD plate, the sides were tapped to be certain it was coated completely (visual inspection). It was then covered and placed at 4° C. overnight on a level surface.
Block MSD Plate: The coating antibody was removed and the plate was washed on a plate washer in MSD wash buffer. The last bit of wash solution was tapped out and 150 uL/well of 3% BSA in MSD wash buffer was added in. The preparation was placed on a shaker at room temperature for at least an hour.
Add samples: Media was removed from compound-treated cells and replaced with 55 uL/well MSD cell lysis buffer containing protease and phosphotase I & II inhibitors. The preparation was incubated on a shaker in a cold room for 30-45 min. The blocked MSD plate was washed a on plate washer, tapping out the last bit of wash solution, followed by addition of 50 uL (of the 55 ul) cell lysate in a well-well transfer. The preparation was covered and incubated on a shaker at room temp for 2 hours. The lysate was removed, washed on a plate washer 3 times, and the last bit of wash buffer was tapped out and replace with 25 uL/well detection antibody (described below).
For pRSK detection, a pRSK antibody stock of 21 ug/mL was prepared as follows: 1 ug/mL pRSK Ser380 antibody (Cell Signaling Technology, Cat. #9335)+1:750 anti-rabbit SulfoTag (Mesoscale Discovery, Cat. # R32AB-1) in 1% BSA in MSD wash buffer.
(§2) For total RSK detection, a total RSK antibody stock of 200 ug/mL was prepared as follows: 1 ug/mL total RSK (Santa Cruz sc-231G) antibody+1:750 anti-goat SulfoTag (from MSD, R32AG-1) in 1% BSA in MSD wash buffer.
The plate was incubated for 1 hr at room temperature on a shaker, followed by three washings. The last bit of wash buffer was tapped out. 150 uL/well 1×MSD Read buffer was added and the plate was then analyzed.
(In general: An ELISA detects its analyte on a solid surface through an enzyme-linked reagent.)

For assay [2], the system named is ERK1/2 phosphorylation of p90RSK in HCT116 cells. The assay is described as follows: Detection of total and phospho-RSK by MSD ELISA (HCT116). It counts as cell-based. The note with it: Homo sapiens, HCT-116, read-out: ERK1/ERK2 PRSK HCT116 EC50. How it is done: Detection of Total and Phospho-RSK by MSD ELISA (HCT116)
as §1
HCT116 cells were grown in RPMI/10% FBS. Prior to the assay, 50,000 cells per well were plated in a 96 well flat bottom plate. Cells were cultured overnight in an incubator at 37° C.
Compound stocks were 10 mM in DMSO. A 1000× dilution was made in DMSO. 1 uL of the DMSO solution was transferred to 1 ml RPMI/10% FBS in a deep well plate. Media in the cell plate was discarded, and 100 uL of the compound-containing media was added. The preparation was incubated at 37° C. for 2 hrs.
Preparation of cell lysates are described below.
pRSK or total RSK MSD Assay
MSD plates: Blank MSD plates were coated with 30 uL capture antibody (BD 610226) at a final concentration of 1 ug/mL in PBS. Both pRSK and total RSK MSD assays used the same capture antibody at the same concentration. Antibody stock concentration was 250 ug/mL. Once antibody solution was added to MSD plate, the sides were tapped to be certain it was coated completely (visual inspection). It was then covered and placed at 4° C. overnight on a level surface.
Block MSD Plate: The coating antibody was removed and the plate was washed on a plate washer in MSD wash buffer. The last bit of wash solution was tapped out and 150 uL/well 3% BSA (MSD Blocker A) in MSD wash buffer was added. The preparation was placed on a shaker at room temperature for at least an hour.
Add samples: Media was removed from compound-treated cells and replaced with 55 uL/well MSD cell lysis buffer containing protease and phosphotase I & II inhibitors. The preparations was incubate on a shaker in a cold room for 30-45 min. The blocked MSD plate was washed on a plate washer, and the last bit of wash solution was tapped out. Next was added 50 uL (of the 55 uL) cell lysate in a well-well transfer. The preparation was covered and incubated on shaker at room temp for 2 hours. The lysate was then removed and washed on plate washer 3 times. The last bit of wash buffer was then tapped out and replaced with 25 uL/well detection antibody (described below).
For pRSK detection, a pRSK antibody stock of 21 ug/mL was prepared as follows: 1 ug/mL pRSK Ser380 antibody (Cell Signaling Technology, Cat. #9335)+1:750 anti-rabbit SulfoTag (from MSD, R32AB-1) in 1% BSA in MSD wash buffer.
as §2
The plate was incubated for 1 hr at room temperature on a shaker, followed by three washes. The last bit of wash buffer was tapped out. Next, 150 uL/well 1×MSD Read buffer was added and the plate was analyzed by the MSD reader.

The test system of assay [3] is ERK1/2 phosphorylation of p90RSK in HT29 cells. The assay is described as follows: pRSK MSD Assay in HT29 cells. It counts as cell-based. The note with it: Homo sapiens, HT-29, read-out: ERK1/ERK2 PRSK MSD HT29 EC50. Summed up:
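Serum-starved HT29 cells (0.1% FBS overnight) treated with test compound for 120 min at 37° C, then lysed with protease and phosphatase inhibitors. Phospho-p90RSK quantified by MSD sandwich immunoassay: RSK capture antibody, phospho-RSK detection antibody plus Sulfo-tagged antibody, electrochemiluminescence read.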

A further assay concerns the target T2, MEK1 activated ERK1 (Homo sapiens, UniProt P27361).
T2 construct: purchased Millipore (Billerica, Mass.) 14-439-K
Briefly: Omnia continuous-read kinase assay for potency against MEK1 activated ERK1. The note with it: ATP at KM, WT. The assay is classed as biochemical. An outline of the steps: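 Apparent IC50 came from initial reaction slopes (RFU vs time) plotted against log inhibitor with a variable-slope fit. Reactions were started with ERK1 (4 nM final) added to 50 μM ATP, roughly at its appKM, and 10 μM Sox-conjugated ST17 peptide in 20 mM Tris pH 7.5, 5 mM MgCl2. Fluorescence was monitored every 71 seconds.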

T1 sequence (P27361 whole entry): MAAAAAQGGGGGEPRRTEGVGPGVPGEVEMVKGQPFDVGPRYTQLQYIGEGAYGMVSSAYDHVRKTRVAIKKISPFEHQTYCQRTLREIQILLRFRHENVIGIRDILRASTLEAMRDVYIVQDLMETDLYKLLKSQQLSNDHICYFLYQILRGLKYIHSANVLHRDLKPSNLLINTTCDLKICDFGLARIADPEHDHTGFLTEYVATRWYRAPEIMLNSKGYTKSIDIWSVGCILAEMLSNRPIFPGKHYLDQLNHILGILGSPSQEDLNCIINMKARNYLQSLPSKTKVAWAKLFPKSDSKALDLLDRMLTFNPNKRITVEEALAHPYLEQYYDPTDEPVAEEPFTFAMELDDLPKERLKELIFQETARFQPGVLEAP
T2 sequence (P27361 whole entry): as above

In the case of `COc1cc(Nc2ncc(C(F)(F)F)c(Nc3ccc(C)cc3N)n2)c(C)cn1` [Compound I-353, N^4-(2-amino-4-methylphenyl)-N^2-(2-methoxy-5-methylpyridin-4-yl)-5-(trifluoromethyl)pyrimidine-2,4-diamine], the “ERK1 Mass Mod (%)” value on Erk1 is “G (a mass modification ≦30%)”. In addition, the EC50 in assay [1] and in assay [2] was over 1000 nM throughout.
As to `C=CC(=O)Nc1cc(C)ccc1Nc1nc(Nc2nc(O)ncc2Cl)ncc1C(F)(F)F` [Compound I-363, N-(2-((2-((5-chloro-2-hydroxypyrimidin-4-yl)amino)-5-(trifluoromethyl)pyrimidin-4-yl)amino)-5-methylphenyl)acrylamide], the “ERK1 Mass Mod (%)” value at Erk1 was “E (a mass modification of ≧70%)”. The EC50 in assay [3], in assay [1] and in assay [2] was over 1000 nM in each case.
Regarding `C=CC(=O)Nc1cc(C)ccc1Nc1nc(Nc2cc(OC)ncn2)ncc1C(F)(F)F` [Compound I-348, N-(2-((2-((6-methoxypyrimidin-4-yl)amino)-5-(trffluoromethyl)pyrimidin-4-yl)amino)-5-methylphenyl)acrylamide], the “ERK1 Mass Mod (%)” value at Erk1 is recorded as “G (a mass modification ≦30%)”. Also, the EC50 fell in the range of 101 to 500 nM in assay [3], 501 to 999 nM in assay [1] and 501 to 999 nM in assay [2].
For the compound `C=CC(=O)Nc1cc(OCC(=O)N2CCN(c3ncccn3)CC2)ccc1Nc1nc(Nc2cc(OC)ncc2C)ncc1C(F)(F)F` [Compound I-403, N-(2-((2-((2-methoxy-5-methylpyridin-4-yl)amino)-5-(trifluoromethyl)pyrimidin-4-yl)amino)-5-(2-oxo-2-(4-(pyrimidin-2-yl)piperazin-1-yl)ethoxy)phenyl)acrylamide], at Erk1, the “ERK1 Mass Mod (%)” value is recorded as “E (a mass modification of ≧70%)”. In addition, the EC50 was under 100 nM in assay [3], 101 to 500 nM in assay [1] and 101 to 500 nM in assay [2].
For the compound `C=CC(=O)Nc1cc(CN2CCN(C)CC2)ccc1Nc1nc(Nc2cc(OC)ncc2C)ncc1C(F)(F)F` [Compound I-380, N-(2-((2-((2-methoxy-5-methylpyridin-4-yl)amino)-5-(trifluoromethyl)pyrimidin-4-yl)amino)-5-((4-methylpiperazin-1-yl)methyl)phenyl)acrylamide], the “ERK1 Mass Mod (%)” value on Erk1 was “E (a mass modification of ≧70%)”. Moreover, at MEK1 activated ERK1, the IC50 (usually the concentration that gives 50% inhibition) is over 1000 nM. In addition, the figures for the EC50 in assay [3] and in assay [1] were 501 to 999 nM and over 1000 nM, respectively.
For `C=CC(=O)Nc1cc(C)ccc1Nc1nc(Nc2cc(O)ncc2C)ncc1C(F)(F)F` [Compound I-365, N-(2-((2-((2-hydroxy-5-methylpyridin-4-yl)amino)-5-(trifluoromethyl)pyrimidin-4-yl)amino)-5-methylphenyl)acrylamide], the “ERK1 Mass Mod (%)” value on Erk1 is reported as “E (a mass modification of ≧70%)”. In addition, the EC50 in assay [3], in assay [1] and in assay [2] was over 1000 nM each time.
`C=CC(=O)Nc1cc(C(=O)N2CCN(C(=O)CO)CC2)ccc1Nc1nc(Nc2cc(OC)ncc2C)ncc1C(F)(F)F` [Compound I-402, N-(5-(4-(2-hydroxyacetyl)piperazine-1-carbonyl)-2-((2-((2-methoxy-5-methylpyridin-4-yl)amino)-5-(trifluoromethyl)pyrimidin-4-yl)amino)phenyl)acrylamide]: at Erk1, the “ERK1 Mass Mod (%)” value was “E (a mass modification of ≧70%)”. In addition, the EC50 in assay [3] fell in the range of 501 to 999 nM; in assay [1], 501 to 999 nM; in assay [2], 101 to 500 nM.
